ChEMBL document CHEMBL1125639, “Synthesis and resolution of (+-)-7-chloro-8-hydroxy-1-(3'-iodophenyl)-3-methyl-2,3,4,5-tetrahydro- 1H-3- benzazepine (TISCH): a high affinity and selective iodinated ligand for CNS D1 dopamine receptor” (J Med Chem, 1991)

Species: Rattus norvegicus
Format: functional, Striatum, Membrane
Description: Inhibition constant of compound on R-(+)-125[I]-8 radioligand binding to rat striatal membranes

Ki: 0.28 nM
SMILES: CN1CCc2cc(Cl)c(O)cc2[C@@H](c2ccccc2)C1 [SCH-23390]
